Results: patent US20260015350A1, “AZAQUINAZOLINE PAN-KRAS INHIBITORS” (Mirati Therapeutics, Inc., priority 2022, published 2026)

What was measured:
KRas^G12R = molecular target: T1, KRas^G12R (Homo sapiens, UniProt P01116, G12R); assay: KRas binding assay (TR-FRET tracer displacement), KRas G12R
T1 construct: Biotinylated KRas (corresponding to amino acids 1-169, produced at Accelegan Inc.); biotin (biotinylated); purchased Accelegan Inc

[1] = system: KRas-mediated phosphorylation of ERK in H727 cells; assay: Inhibition of KRas-mediated phosphorylation of ERK (Cisbio HTRF pERK), H727 cells; type: cell-based; conditions: for IC50: HTRF pERK
Method in brief: (§1)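 A cell-based HTRF pERK assay: ten-point, threefold titrations beginning at 10 uM were applied for 3 hrs, with 0.2 uM Trametinib wells as the minimum control. Cells were lysed cold, and lysate was incubated with the antibody pair for 2 hrs before reading.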

KRas^G12D = molecular target: T2, KRas^G12D (Homo sapiens, UniProt P01116, G12D); assay: KRas binding assay (TR-FRET tracer displacement), KRas G12D
T2 construct: Biotinylated KRas (corresponding to amino acids 1-169, produced at Accelegan Inc.); biotin (biotinylated); purchased Accelegan Inc

[2] = system: KRas-mediated phosphorylation of ERK in AsPC-1 cells; assay: Inhibition of KRas-mediated phosphorylation of ERK (Cisbio HTRF pERK), AsPC-1 cells; type: cell-based; conditions: for IC50: HTRF pERK
Method in brief: as §1

[3] = system: KRas-mediated phosphorylation of ERK in A549 cells; assay: Inhibition of KRas-mediated phosphorylation of ERK (Cisbio HTRF pERK), A549 cells; type: cell-based; conditions: for IC50 / inhibition at 0.1 µM: Homo sapiens; for IC50: HTRF pERK; for inhibition at 0.1 µM: A549, 3 h
Method in brief: (§2)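 Phosphorylated ERK was quantified by HTRF using d2-conjugate and Cryptate antibodies added to lysates for 2 hrs at room temperature.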

[4] = system: KRas-mediated phosphorylation of ERK in PSN1 cells; assay: Inhibition of KRas-mediated phosphorylation of ERK (Cisbio HTRF pERK), PSN1 cells; type: cell-based; conditions: Homo sapiens
Method in brief: (§3)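 Overnight culture at 37° C./5% CO2 in RPMI containing 10% FBS, seeded 6,000 cells per well, preceded the assay. A covered 4-hour incubation at room temperature followed, then HTRF signal for phosphorylated ERK was measured.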

[5] = system: KRas-mediated phosphorylation of ERK in HCT116 cells; assay: Inhibition of KRas-mediated phosphorylation of ERK (Cisbio HTRF pERK), HCT116 cells; type: cell-based; conditions: for IC50 / inhibition at 0.1 µM: Homo sapiens; for IC50: HCT-116, HTRF pERK; for inhibition at 0.1 µM: HCT-116, 3 h
Method in brief: as §2

[6] = system: KRas-mediated phosphorylation of ERK in MKN1 cells; assay: Inhibition of KRas-mediated phosphorylation of ERK (Cisbio HTRF pERK), MKN1 cells; type: cell-based; conditions: Homo sapiens, MKN-1
Method in brief: as §3

[7] = system: KRas-mediated phosphorylation of ERK in H358 cells; assay: Inhibition of KRas-mediated phosphorylation of ERK (Cisbio HTRF pERK), H358 cells; type: cell-based; conditions: for IC50 / inhibition at 0.1 µM: Homo sapiens; for IC50: NCI-H358, HTRF pERK; for inhibition at 0.1 µM: NCI-H358, 3 h
Method in brief: as §1

[8] = system: KRas-mediated phosphorylation of ERK in H460 cells; assay: Inhibition of KRas-mediated phosphorylation of ERK (Cisbio HTRF pERK), H460 cells; type: cell-based; conditions: for IC50 / inhibition at 0.1 µM: Homo sapiens; for IC50: NCI-H460, HTRF pERK; for inhibition at 0.1 µM: NCI-H460, 3 h
Method in brief: as §1

KRas^G12V = molecular target: T3, KRas^G12V (Homo sapiens, UniProt P01116, G12V); assay: KRas binding assay (TR-FRET tracer displacement), KRas G12V
T3 construct: Biotinylated KRas (corresponding to amino acids 1-169, produced at Accelegan Inc.); biotin (biotinylated); purchased Accelegan Inc

[9] = Homo sapiens, NCI-H727, H727 cells
[10] = Homo sapiens, ASPC1, AsPC-1 cells
[11] = single point, 100 nM compound, 3 hrs, 0.1 µM
[12] = single point, 100 nM compound, 3 hrs

T2 sequence (P01116 1-169 isoform P01116-2 G12D): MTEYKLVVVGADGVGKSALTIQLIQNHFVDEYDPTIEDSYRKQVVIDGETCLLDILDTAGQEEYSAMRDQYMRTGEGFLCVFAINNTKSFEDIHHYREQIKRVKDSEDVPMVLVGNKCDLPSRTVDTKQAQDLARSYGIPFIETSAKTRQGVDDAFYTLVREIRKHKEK
T1 sequence (P01116 1-169 isoform P01116-2 G12R): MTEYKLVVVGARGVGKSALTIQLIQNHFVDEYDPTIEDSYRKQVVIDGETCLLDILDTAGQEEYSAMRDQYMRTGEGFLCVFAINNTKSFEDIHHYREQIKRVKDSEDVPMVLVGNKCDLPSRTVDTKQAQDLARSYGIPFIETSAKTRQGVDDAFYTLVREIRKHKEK
T3 sequence (P01116 1-169 isoform P01116-2 G12V): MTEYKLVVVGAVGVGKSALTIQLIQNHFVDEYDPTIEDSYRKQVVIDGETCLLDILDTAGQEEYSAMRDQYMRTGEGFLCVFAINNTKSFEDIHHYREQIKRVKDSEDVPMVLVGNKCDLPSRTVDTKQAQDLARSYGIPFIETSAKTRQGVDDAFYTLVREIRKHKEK

IC50 (KRas^G12R)	IC50 [1, 9]	IC50 (KRas^G12D)	IC50 [2, 10]	IC50 [3]	IC50 [4]	IC50 [5]	IC50 [6]	IC50 [8]	IC50 (KRas^G12V)	SMILES	inhibition at 0.1 µM [5, 12]	inhibition at 0.1 µM [8, 12]	further results
< 2 nM		7 nM		4 nM	> 10000 nM	24 nM	1 nM	5 nM	< 2 nM	CCc1c(F)ccc2cc(O)cc(-c3ncc4c(N5CC6CCC(C5)C6C#N)nc(OC[C@@]56CCCN5C[C@H](F)C6)nc4c3F)c12 (single isomer, unassigned) [Example 561]			IC50 ([1]; H727 cells): 13 nM; Inhibition (HTRF % at 100 nM) of KRas-mediated Phosphorylation of ERK, H727 ([1]; single point, 100 nM compound, 3 hrs, H727 cells, 0.1 µM): 74%; IC50 ([2]; AsPC-1 cells): 80 nM; Inhibition (HTRF % at 100 nM) of KRas-mediated Phosphorylation of ERK, AsPC-1 ([2]; single point, 100 nM compound, 3 hrs, AsPC-1 cells, 0.1 µM): 30%; Inhibition (HTRF % at 100 nM) of KRas-mediated Phosphorylation of ERK, A549 [3, 11]: 103%; Inhibition (HTRF % at 100 nM) of KRas-mediated Phosphorylation of ERK, HCT116 [5, 11]: 63%; IC50 [7]: 3 nM; Inhibition (HTRF % at 100 nM) of KRas-mediated Phosphorylation of ERK, H358 [7, 11]: 99%; Inhibition (HTRF % at 100 nM) of KRas-mediated Phosphorylation of ERK, H460 [8, 11]: 99%
< 2 nM	280 nM	12 nM	1770 nM	542 nM	> 10000 nM		56 nM		3 nM	CCc1c(F)ccc2cc(O)cc(-c3ncc4c(N5C[C@H]6C[C@@H](C5)C(O)C6O)nc(OC[C@@]56CCCN5C[C@H](F)C6)nc4c3F)c12 (single isomer, unassigned) [Example 570]	26%	38%	inhibition at 0.1 µM [3, 12]: 26%; inhibition at 0.1 µM [7, 12]: 69%
4 nM	79 nM	22 nM	455 nM		> 10000 nM		25 nM		3 nM	CCc1c(F)ccc2cc(O)cc(-c3ncc4c(N5CCC(C#N)CC5)nc(OC[C@@]56CCCN5C[C@H](F)C6)nc4c3F)c12 [Example 544, 1-(7-(8-ethyl-7-fluoro-3-hydroxynaphthalen-1-yl)-8-fluoro-2-(((2R,7aS)-2-fluorohexahydro-1H-pyrrolizin-7a-yl)methoxy)pyrido[4,3-d]pyrimidin-4-yl)piperidine-4-carbonitrile]	5%	46%	inhibition at 0.1 µM ([1]; Homo sapiens, NCI-H727, 3 h, single point, 100 nM compound, 3 hrs, H727 cells): 30%; inhibition at 0.1 µM ([2]; Homo sapiens, ASPC1, 3 h, single point, 100 nM compound, 3 hrs, AsPC-1 cells): -13%; inhibition at 0.1 µM [3, 12]: 59%; inhibition at 0.1 µM [7, 12]: 67%
	240 nM		213 nM	136 nM	> 10000 nM	504 nM	3 nM	96 nM		CCc1c(F)ccc2cc(O)cc(-c3ncc4c(N5CCCCC5)nc(OC[C@@]56CCCN5C[C@H](F)C6)nc4c3F)c12 [Example 900, 5-ethyl-6-fluoro-4-(8-fluoro-2-(((2R,7aS)-2-fluorotetrahydro-1H-pyrrolizin-7a(5H)-yl)methoxy)-4-(piperidin-1-yl)pyrido[4,3-d]pyrimidin-7-yl)naphthalen-2-ol]			IC50 [7]: 82 nM

The remaining lines, values behind:

SMILES	IC50 (KRas^G12R)	IC50 [1, 9]	IC50 (KRas^G12D)	IC50 [2, 10]	IC50 [3]	IC50 [4]	IC50 [5]	IC50 [6]	IC50 [8]	IC50 (KRas^G12V)	inhibition at 0.1 µM [5, 12]	inhibition at 0.1 µM [8, 12]	further results
C[C@@H]1C[C@@H]1c1c(Cl)cc2[nH]ncc2c1-c1ncc2c(N3CCC[C@]4(C3)NC(=O)NC4=O)nc(OCC34CCCN3CCC4)nc2c1F (atropisomer, axis not shown) [Example 887, (R)-7-(7-((R)-6-chloro-5-((1S,2R)-2-methylcyclopropyl)-1H-indazol-4-yl)-8-fluoro-2-((tetrahydro-1H-pyrrolizin-7a(5H)-yl)methoxy)pyrido[4,3-d]pyrimidin-4-yl)-1,3,7-triazaspiro[4.5]decane-2,4-dione]	2 nM	> 10000 nM	5 nM	> 10000 nM	> 10000 nM	> 10000 nM	> 10000 nM	1240 nM	7040 nM	3 nM			IC50 [7]: 2540 nM
CCc1c(F)ccc2cc(O)cc(-c3ncc4c(N5CCCc6ncccc6C5)nc(OC[C@@]56CCCN5C[C@H](F)C6)nc4c3F)c12 [Example 579, 5-ethyl-6-fluoro-4-(8-fluoro-2-(((2R,7aS)-2-fluorotetrahydro-1H-pyrrolizin-7a(5H)-yl)methoxy)-4-(5,7,8,9-tetrahydro-6H-pyrido[3,2-c]azepin-6-yl)pyrido[4,3-d]pyrimidin-7-yl)naphthalen-2-ol]	3 nM	369 nM	5 nM	155 nM	357 nM	> 10000 nM	1780 nM	37 nM	481 nM	6 nM			
CCc1c(F)ccc2cc(O)cc(-c3ncc4c(N5CCCC6(CNS(=O)(=O)C6)C5)nc(OC[C@@]56CCCN5C[C@H](F)C6)nc4c3F)c12 (stereo partly drawn) [Example 644, 7-(7-(8-ethyl-7-fluoro-3-hydroxynaphthalen-1-yl)-8-fluoro-2-(((2R,7aS)-2-fluorohexahydro-1H-pyrrolizin-7a-yl)methoxy)pyrido[4,3-d]pyrimidin-4-yl)-2-thia-3,7-diazaspiro[4.5]decane 2,2-dioxide]	< 2 nM	340 nM	3 nM	147 nM	299 nM	2620 nM	411 nM	10 nM	160 nM	< 2 nM			
CCc1c(F)ccc2cc(O)cc(-c3ncc4c(NCc5cc(C(=O)N(C)C)n(C(F)F)n5)nc(OC[C@@]56CCCN5C[C@H](F)C6)nc4c3F)c12 [Example 662, 1-(difluoromethyl)-3-(((7-(8-ethyl-7-fluoro-3-hydroxynaphthalen-1-yl)-8-fluoro-2-(((2R,7aS)-2-fluorohexahydro-1H-pyrrolizin-7a-yl)methoxy)pyrido[4,3-d]pyrimidin-4-yl)amino)methyl)-N,N-dimethyl-1H-pyrazole-5-carboxamide]	3 nM	274 nM	3 nM	837 nM		> 10000 nM		57 nM		< 2 nM			inhibition at 0.1 µM [3, 12]: 22%; inhibition at 0.1 µM [7, 12]: 22%
CCc1c(F)ccc2cc(O)cc(-c3ncc4c(N5CCCc6nc(C(=O)N(C)C)ccc6C5)nc(OC[C@@]56CCCN5C[C@H](F)C6)nc4c3F)c12 [Example 666, 6-(7-(8-ethyl-7-fluoro-3-hydroxynaphthalen-1-yl)-8-fluoro-2-(((2R,7aS)-2-fluorohexahydro-1H-pyrrolizin-7a-yl)methoxy)pyrido[4,3-d]pyrimidin-4-yl)-N,N-dimethyl-6,7,8,9-tetrahydro-5H-pyrido[3,2-c]azepine-2-carboxamide]	< 2 nM	320 nM	< 2 nM	184 nM	207 nM	> 10000 nM		18 nM		2 nM	24%	59%	
CCc1c(F)ccc2cc(O)cc(-c3ncc4c(N5CCCn6nc(S(=O)(=O)N(C)C)cc6C5)nc(OC[C@@]56CCCN5C[C@H](F)C6)nc4c3F)c12 [Example 685, 5-(7-(8-ethyl-7-fluoro-3-hydroxynaphthalen-1-yl)-8-fluoro-2-(((2R,7aS)-2-fluorohexahydro-1H-pyrrolizin-7a-yl)methoxy)pyrido[4,3-d]pyrimidin-4-yl)-N,N-dimethyl-5,6,7,8-tetrahydro-4H-pyrazolo[1,5-a][1,4]diazepine-2-sulfonamide]	6 nM	1670 nM	< 2 nM	245 nM	1090 nM	> 10000 nM	359 nM	9 nM	188 nM	8 nM			
CCc1c(F)ccc2cc(O)cc(-c3ncc4c(N5CCCC6(CC(=O)N6)C5)nc(OC[C@]56CCCN5[C@H](COC(=O)N(C)C)CC6)nc4c3F)c12 (stereo partly drawn) [Example 715, ((3S,7aR)-7a-(((7-(8-ethyl-7-fluoro-3-hydroxynaphthalen-1-yl)-8-fluoro-4-(2-oxo-1,6-diazaspiro[3.5]nonan-6-yl)pyrido[4,3-d]pyrimidin-2-yl)oxy)methyl)hexahydro-1H-pyrrolizin-3-yl)methyl dimethylcarbamate]	4 nM	153 nM	4 nM	97 nM	344 nM	3620 nM		43 nM		2 nM	8%	42%	
